Results from US12173026B2, “PRMT5 inhibitors” (Merck Sharp & Dohme LLC, priority 2018, dated 2024).

What follows are compounds tested on symmetric dimethylation of arginine (SDMA) of PRMT5 substrates in MCF-7 cells (assay: PRMT5 Cell Target Engagement (TE) Assay). Settings: Homo sapiens, MCF7, 72 h; MCF-7 cells treated for 3 days; nuclear SDMA by high content imaging; top concentration 10000 nM.
Type: cell-based
Excerpt: PRMT5 Cell Target Engagement (TE) Assay
The PRMT5 TE assay is a biomarker assay for identifying compounds that inhibit symmetric dimethylation of arginine (SDMA) of PRMT5 substrates. The following substrates have been reported for PRMT5: Histone H2A and H4 R3, Histone H3 R2, Histone 1-13 R8, spliceosome Sm proteins, ribosomal protein RPS10, p53, FEN1, nucleoplasmin, nucleolin, EGFR and EBNA. The assay will focus on detecting symnetrically dimethylated nuclear proteins using high content imaging technology. Detection of the expression of symmetrically dimethylated nuclear proteins is through a mixture of primary rabbit monoclonal antibodies to SDMA (CST 13222) which in turn recognized by an Alexafluor 488 dye-conjugated anti-rabbit IgG secondary antibody. The IN Cell Analyzer 2200 or Opera-Phenix measures nuclear Alexafluor 488 fluorescent dye intensity that is directly related to the level of expression of symmetrically dimethylated nuclear proteins at the single cell level. Nuclear AF488 dye intensities are compared to the mean value for DMSO treated cells (MIN) to report percent of inhibition for each compound-treated well.
In this assay, the cell potency (EC50) of each compound was determined from a ten point (1:3 serial dilution; top compound concentration of 10000 nM) titration curve using the following outlined procedure. Each well of a BD falcon collagen coated black/clear bottom 384-well plate was seeded with 4000 MCF-7 cells in 30 pal media and allowed to attach for 5 hours. Media is ATCC-formulated Eagle's Minimum Essential Medium, Catalog No. 30-2003. The following components were added to the base medium: 0.01 mg/mL human recombinant insulin; fetal bovine serum to a final concentration of 10%. Additional 30 pal of media containing 2× compounds were added to each well. Cells were treated for 3 days in 37° C. CO2 incubator. On day 3, cells were fixed with Cytofix, permeabilized with 0.4% Triton-X-100/Cytofix, and washed with D-PBS without Ca/Mg. Cells were blocked with Licor Odessey blocking reagent for 1 hour at room temperature, followed by incubation with anti-SDMA (1:1000) antibody at 4° C. overnight. 1° antibody was removed, followed by three washings with DPBS without Ca/Mg and 0.05% Tween20. Hoechst (5 μg/mL), Cell Mask deep stain (1:2000) and Alexa488-conjugated goat anti-rabbit IgG (2 μg/mL) was added for 1 hour at room temperature. A final washing step (three washes) was performed before sealing plate for imaging on in Cell Analyzer 2200 or Opera-Phenix. Images from analyzer were uploaded to Columbus for image analysis. IC50 values were determined by 4 parameters robust fit of percent fluorescence units vs. (Log 10) compound concentrations.

| SMILES | EC50 |
| --- | --- |
| C[C@]1(COc2ccc3ccc(N)nc3c2)C[C@@H](n2ccc3c(N)ncnc32)[C@H](O)[C@@H]1O [Example 101, (1S,2R,3R,5R)-5-(4-amino-7H-pyrrolo[2,3-d]pyrimidin-7-yl)-3-(((2-aminoquinolin-7-yl)oxy)methyl)-3-methylcyclopentane-1,2-diol] | 1 nM |
| Nc1nc2cc(C[C@@H]3CC[C@@]4(O)[C@@H]3C[C@@H](n3ccc5c(N)ncnc53)[C@@H]4O)ccc2cc1Br [Example 41, (1S,2R,3aR,4S,6aR)-4-((2-amino-3-bromoquinolin-7-yl)methyl)-2-(4-amino-7H-pyrrolo[2,3-d]pyrimidin-7-yl)hexahydropentalene-1,6a (1H)-diol 2,2,2-trifluoroacetate] | 2.9 nM |
| Cc1ncnc2c1ccn2[C@@H]1C[C@](C)(CCc2ccc3cc4c(nc3c2)NCC4)[C@@H](O)[C@H]1O [Example 110, (1S,2R,3S,5R)-3-(2-(2,3-dihydro-1H-pyrrolo[2,3-b]quinolin-7-yl)ethyl)-3-methyl-5-(4-methyl-7H-pyrrolo[2,3-d]pyrimidin-7-yl)cyclopentane-1,2-diol] | 39.6 nM |
| Nc1nc2cc(O[C@H]3CC[C@@]4(O)[C@@H]3O[C@@H](n3ccc5c(CO)ncnc53)[C@@H]4O)ccc2cc1Br [Example 77, (2R,3R,3aS,6S,6aR)-6-[(2-amino-3-bromoquinolin-7-yl)oxy]-2-[4-(hydroxymethyl)-7H-pyrrolo[2,3-d]pyrimidin-7-yl]hexahydro-3aH-cyclopenta[b]furan-3,3a-diol] | 186 nM |
| Cc1ncnc2c1ccn2[C@@H]1O[C@@H]2[C@@H](Oc3ccc4cc(C(F)F)c(N)nc4c3)CC[C@]2(O)[C@H]1O [Example 115, (2R,3R,3aS,6S,6aR)-6-((2-amino-3-(difluoromethyl)quinolin-7-yl)oxy)-2-(4-methyl-7H-pyrrolo[2,3-d]pyrimidin-7-yl)hexahydro-3aH-cyclopenta[b]furan-3,3a-diol] | 13.6 nM |
| Cc1cn([C@@H]2C[C@@H]3[C@H](Cc4cc(F)c5cc(Cl)c(N)nc5c4)CC[C@]3(O)[C@H]2O)c2ncnc(N)c12 [Example 36, (1S,2R,3aR,4S,6aR)-4-[(2-amino-3-chloro-5-fluoroquinolin-7-yl)methyl]-2-(4-amino-5-methyl-7H-pyrrolo[2,3-d]pyrimidin-7-yl)hexahydropentalene-1,6a(1H)-diol] | 1.4 nM |
| Nc1nc2cc(C[C@@H]3OC[C@@]4(O)[C@@H]3O[C@@H](n3ccc5c(N)ncnc53)[C@@H]4O)ccc2cc1Br [Example 136, (2R,3R,3aS,6S,6aR)-6-((2-amino-3-bromoquinolin-7-yl)methyl)-2-(4-amino-7H-pyrrolo[2,3-d]pyrimidin-7-yl)tetrahydrofuro[3,4-b]furan-3,3a(4H)-diol] | 0.4 nM |
| Cc1ncnc2c1ccn2[C@@H]1O[C@@H]2[C@@H](Nc3ccc4cc(F)c(N)nc4c3)CC[C@]2(O)[C@H]1O [Example 120, (2R,3R,3aS,6S,6aR)-6-(2-amino-3-fluoroquinolin-7-yl)amino-2-(4-methyl-7H-pyrrolo[2,3-d]pyrimidin-7-yl)hexahydro-3aH-cyclopenta[b]furan-3,3a-diol] | 2 nM |
| CNc1ncnc2c1ccn2[C@@H]1C[C@H](COc2ccc3cc(Br)c(N)nc3c2)[C@@](C)(O)[C@H]1O [Example 93, (1R,2S,3R,5R)-5-(((2-amino-3-bromoquinolin-7-yl)oxy)methyl)-1-methyl-3-(4-(methylamino)-7H-pyrrolo[2,3-d]pyrimidin-7-yl)cyclopentane-1,2-diol] | 3.5 nM |
| Nc1nc2cc(O[C@H]3CC[C@@]4(O)[C@@H]3O[C@@H](n3ccc5c(N)ncnc53)[C@@H]4O)ccc2cc1Cl [Example 72, (2R,3R,3aS,6S,6aR)-6-((2-amino-3-chioroquinolin-7-yl)oxy)-2-(4-amino-7H-pyrrolo[2,3-d]pyrimidin-7-yl)hexahydro-3aH-cyclopenta[b]furan-3,3a-diol] | 1.2 nM |
| C[C@@]1(O)[C@@H](COc2ccc3ccc(N)nc3c2)C[C@@H](n2ccc3cncnc32)[C@@H]1O [Example 105, (1R,2S,3R,5R)-5-(((2-aminoquinolin-7-yl)oxy)methyl)-1-methyl-3-(7H-pyrrolo[2,3-d]pyrimidin-7-yl)cyclopentane-1,2-diol] | 0.9 nM |
| Nc1nc2cc(O[C@H]3CC[C@@]4(O)[C@@H]3O[C@@H](n3ccc5c(N)ncnc53)[C@@H]4O)ccc2cc1Br [Example 6, (2R,3R,3aS,6S,6aR)-6-((2-amino-3-bromoquinolin-7-yl)oxy)-2-(4-amino-7H-pyrrolo[2,3-d]pyrimidin-7-yl)hexahydro-2H-cyclopenta[b]furan-3,3a-diol] | 1.2 nM |
| C[C@@]1(O)[C@@H](CCc2ccc3cc(Br)c(N)nc3c2)C[C@@H](n2ccc3c(N)ncnc32)[C@@H]1O [Example 103, (1R,2S,3R,5S)-5-(2-(2-amino-3-bromoquinolin-7-yl)ethyl)-3-(4-amino-7H-pyrrolo[2,3-d]pyrimidin-7-yl)-1-methylcyclopentane-1,2-diol] | 12.4 nM |
| Cc1ncnc2c1ccn2[C@@H]1C[C@@H]2[C@H](Cc3ccc4cc(Cl)c(N)nc4c3)CC[C@]2(O)[C@H]1O [Example 17, (1S,2R,3aR,4S,6aR)-4-((2-amino-3-chloroquinolin-7-yl)methyl)-2-(4-methyl-7H-pyrrolo[2,3-d]pyrimidin-7-yl)hexahydropentalene-1,6a(1H)-diol] | 0.9 nM |
| Nc1nc2cc(C[C@@H]3CC[C@@]4(O)[C@@H]3O[C@@H](n3ccc5c(C6CC6)ncnc53)[C@@H]4O)ccc2cc1Br [Example 87, (2R,3R,3aS,6S,6aR)-6-((2-amino-3-bromoquinolin-7-yl)methyl)-2-(4-cyclopropyl-7H-pyrrolo[2,3-d]pyrimidin-7-yl)hexahydro-3aH-cyclopenta[b]furan-3,3a-diol] | 22.9 nM |

The remaining lines, values ahead:

| EC50 | SMILES |
| --- | --- |
| 2.3 nM | Nc1nc2cc(C[C@@H]3CC[C@@]4(O)[C@@H]3O[C@@H](n3ccc5c(N)ncnc53)[C@@H]4O)ccc2cc1F [Example 124, (2R,3R,3aS,6S,6 aR)-6-((2-amino-3-fluoroquinolin-7-yl)methyl)-2-(4-amino-7H-pyrrolo[2,3-d]pyrimidin-7-yl)hexahydro-3aH-cyclopenta[b]furan-3,3a-diol] |
| 8.1 nM | Nc1nc2cc(C[C@H]3[C@H]4O[C@@H](n5ccc6c(N)ncnc65)[C@H](O)[C@@]4(O)C[C@@H]3F)ccc2cc1F [Example 54, (2R,3R,3aS,5S,6S,6aR)-6-[(2-amino-3-fluoroquinolin-7-yl)methyl]-2-(4-amino-7H-pyrrolo[2,3-d]pyrimidin-7-yl)-5-fluorohexahydro-3aH-cyclopenta[b]furan-3,3a-diol] |
| 0.5 nM | Nc1nc2cc(C[C@@H]3CC[C@@]4(O)[C@@H]3O[C@@H](n3ccc5c(N)ncnc53)[C@@H]4O)cc(F)c2cc1Cl [Example 21, (2R,3R,3aS,6S,6aR)-6-[(2-amino-3-chloro-5-fluoroquinolin-7-yl)methyl]-2-(4-amino-7H-pyrrolo[2,3-d]pyrimidin-7-yl)hexahydro-3aH-cyclopenta[b]furan-3,3a-diol] |
| 3.7 nM | Cc1cn([C@@H]2O[C@@H]3[C@H](Cc4ccc5cc(F)c(N)nc5c4)CC[C@]3(O)[C@H]2O)c2ncnc(N)c12 [Example 62, (2R,3R,3aS,6S,6aR)-6-((2-amino-3-fluoroquinolin-7-yl)methyl)-2-(4-amino-5-methyl-7H-pyrrolo[2,3-d]pyrimidin-7-yl)hexahydro-3aH-cyclopenta[b]furan-3,3a-diol 2,2,2-trifluoroacetate] |
| 3.2 nM | Cc1nc(N)c2ccn([C@@H]3O[C@@H]4[C@H](Cc5ccc6cc(Br)c(N)nc6c5)CC[C@]4(O)[C@H]3O)c2n1 [Example 61, (2R,3R,3aS,6S,6aR)-2-(4-amino-2-methyl-7H-pyrrolo[2,3-d]pyrimidin-7-yl)-6-((2-amino-3 bromoquinolin-7-yl)methyl)hexahydro-3aH-cyclopenta[b]furan-3,3a-diol] |
| 1.1 nM | Nc1nc2cc(C[C@@H]3CC[C@@]4(O)[C@@H]3O[C@@H](n3cc(F)c5c(N)ncnc53)[C@@H]4O)ccc2cc1Cl [Example 68, (2R,3R,3aS,6S,6aR)-6-((2-amino-3-chloroquinolin-7-yl)methyl)-2-(4-amino-5-fluoro-7H-pyrrolo[2,3-d]pyrimidin-7-yl)hexahydro-3aH-cyclopenta[b]furan-3,3a-diol] |
| 4.6 nM | Nc1nc2cc(C[C@@H]3CC[C@@]4(O)[C@@H]3O[C@@H](n3cc(F)c5c(N)ncnc53)[C@@H]4O)ccc2cc1F [Example 59, (2R,3R,3aS,6S,6aR)-6-((2-amino-3-fluoroquinolin-7-yl)methyl)-2-(4-amino-5-fluoro-7H-pyrrolo[2,3-d]pyrimidin-7-yl)hexahydro-3aH-cyclopenta[b]furan-3,3a-diol] |
